Results from patent publication US6492328B2, “Novispirins: antimicrobial peptides” (priority 2000, dated 2002).
In brackets after ≈: the same amount, converted by molar mass. Where two headings read alike, the source gives them in different places. Where no end group is shown, it is not given here.

Key:
P. aeruginosa MR 3007 = details: underlay gel 60% RPMI-1640
Description: (§1) Effect of serum. […] Because serum can be present in an inflammatory focus or exudate, the ability to function in the presence of serum would be a desirable property.
(§2) In these experiments, the underlay gel contained 60% RPMI-1640, ±2.5 or 20% normal human serum (NHS). The remainder of the solution was phosphate-buffered saline

E. coli ML 35P [1] = tested on: E. coli ML 35P
Description: as §1, §2

P. aeruginosa = assay: Two stage radial diffusion assay with 10 mM HEPES, G10 variants (Table 8); type: cell-based; details: mean ± SEM, n = 3, in µg/mL
Description: (§3) Amidation (—NH2) of the carboxy terminus in some of the novispirin G10 variants was designed to increase overall positive charge. The sequences of these peptides and their net charge is shown below in Table 7. The fractional (and pH dependent) charge on histidine12 was ignored in this calculation.
(§4) In Table 8, MIC signifies minimal inhibitory concentration, as determined by two stage radial diffusion assays. […] Shaded boxes show results that represent a significant improvement of activity (p<0.01 by t-test), relative to novispirin G10. […] None of the above G10 novispirin derivatives caused any hemolysis of human red blood cells, even when tested at 80 μg/ml. It is likely that other cationic amino acids (e.g., lysine, ornithine, etc) could also be used in position 12 to achieve better activity in the presence of calcium and magnesium ions.

E. coli = assay: as above; type: cell-based; details: mean ± SEM, n = 3, in µg/mL
Description: as §3, §4

K. pneumoniae = assay: as above; type: cell-based; details: mean ± SEM, n = 3, in µg/mL
Description: as §3, §4

S. aureus = assay: as above; type: cell-based; details: +1 mM Ca; mean ± SEM, n = 3; in µg/mL
Description: as §3, §4

E. coli ML 35P [2] = type: cell-based, Escherichia coli; details: mean ± SEM, n = 3
Procedure: Antimicrobial activity. Several different methods were used to examine the antimicrobial properties of novispirins, including: a) two-stage radial diffusion assays; b) colony counting assays; and c) standard microbroth dilution assays.
Antimicrobial activity was tested in media with low, normal or high salinity. In radial diffusion assays, this was accomplished by using a low salt “basic medium” containing 0.3 mg of trypticase soy broth powder/ml of 10 mM sodium phosphate buffer, pH 7.4. Media with “normal” or “high” salinity were prepared by supplementing the basic medium with 100 mM NaCl to obtain media with normal salinity, or with 175-200 mM NaCl to obtain high salt media. Retention of activity against P. aeruginosa in high salt media is important because airway fluids from cystic fibrosis patients are reported to show hypersalinity, and other sites—including skin surfaces surfaces and the urinary bladder—may have locally high salt concentrations.
The relative activities of ovispirin and the novispirins against two organisms, E. coli and a multi-resistant strain of P. aeruginosa, are shown in FIG. 1. The MICs were obtained by radial diffusion assays performed under low, normal, and high salt conditions (which are denoted along the X-axis as 0, 100 and 200 mM NaCl, respectively).
Table 1 compares the activity of novispirins against these Gram-negative bacteria with its activity against Listeria monocytogenes, Staphylococcus aureus and C. albicans. […] Note that novispirins show activity against these Gram-positive bacteria when tested in physiological (100 mM NaCl) salt concentrations, and also that Novispirin G10 is quite active against C. albicans. Although neither ovispirin nor novispirins retained activity against C. albicans or the Gram positives under very high salt conditions (200 mM NaCl), they remained active against the Gram-negatives under these conditions. Consequently, even if the airways' NaCl concentrations are exceptionally high in CF patients, this factor will not impair the ability of ovispirin or novispirins to kill P. aeruginosa.

S. maltophilia 47CG = assay: Novispirins vs S. maltophilia (Table 5); type: cell-based, Stenotrophomonas maltophilia; set-up: unit not given here; details: strain 47CG
Procedure: (§5) Microorganisms used in this study included 13 different Pseudomonas aeruginosa strains. The AML-654 and LZ-1 strains are recent clinical isolates from the UCLA Clinical Microbiology laboratory. Nine strains (5 mucoid, 4 nonmucoid) were recent CF isolates provided by Dr. Lisa Saiman. All of the P. aeruginosa strains except PAO-1 strain were resistant to multiple conventional antibiotics, and all 9 CF isolates were resistant to 250 μg/ml of tobramycin. We have also tested 5 strains each of Stenotrophomonas maltophilia and Burkholderia cepacia from CF patients (also provided by Dr. Lisa Saiman), two strains of Escherichia coli (ML-35p and DH-5a), and single strains of Staphylococcus aureus[MRSA (methicillin-resistant S. aureus)] and C. albicans.

S. maltophilia 18CP = assay: Novispirins vs S. maltophilia (Table 5); type: cell-based, Stenotrophomonas maltophilia; set-up: unit not given here; details: strain 18CP
Procedure: as §5

S. maltophilia 36CN = assay: Novispirins vs S. maltophilia (Table 5); type: cell-based, Stenotrophomonas maltophilia; set-up: unit not given here; details: strain 36CN
Procedure: as §5

S. maltophilia 51Cl = assay: Novispirins vs S. maltophilia (Table 5); type: cell-based, Stenotrophomonas maltophilia; set-up: unit not given here; details: strain 51Cl
Procedure: as §5

S. maltophilia 42CK = assay: Novispirins vs S. maltophilia (Table 5); type: cell-based, Stenotrophomonas maltophilia; set-up: unit not given here; details: strain 42CK
Procedure: as §5

human red blood cells = type: cell-based
Procedure: Hemolytic Activity: This was tested by incubating various concentrations of peptide with a suspension (2.8% v/v) of washed human, murine, sheep or bovine red cells in PBS. After 30 min at 37C, the tubes were centrifuged and the percentage of total hemoglobin released to the supernatant was measured.
Similar results were obtained with murine red blood cells. In contrast, none of these peptides were appreciably hemolytic towards sheep or bovine red blood cells.

[3] = tested on: MRC-5 human lung fibroblasts; type: cell-based
Description: FIG. 5 compares the cytotoxicity of these peptides for MRC-5 human lung fibroblasts.

[4] = Very high salinity (+200 mM NaCl)

Compound | MIC (E. coli ML 35P [2]; Low Salt (+0 mM NaCl)) | MIC (E. coli ML 35P [2]; Normal salinity (+100 mM NaCl)) | MIC (E. coli ML 35P [2]; [4]) | activity vs S. maltophilia (S. maltophilia 47CG; +100 mM NaCl) | activity vs S. maltophilia (S. maltophilia 47CG; +175 mM NaCl) | activity vs S. maltophilia (S. maltophilia 47CG; LOW SALT CONDITIONS) | activity vs S. maltophilia (S. maltophilia 18CP; +100 mM NaCl) | activity vs S. maltophilia (S. maltophilia 18CP; +175 mM NaCl) | activity vs S. maltophilia (S. maltophilia 18CP; LOW SALT CONDITIONS) | activity vs S. maltophilia (S. maltophilia 36CN; +100 mM NaCl) | activity vs S. maltophilia (S. maltophilia 36CN; +175 mM NaCl) | activity vs S. maltophilia (S. maltophilia 36CN; LOW SALT CONDITIONS) | activity vs S. maltophilia (S. maltophilia 51Cl; +100 mM NaCl) | activity vs S. maltophilia (S. maltophilia 51Cl; +175 mM NaCl) | activity vs S. maltophilia (S. maltophilia 51Cl; LOW SALT CONDITIONS) | activity vs S. maltophilia (S. maltophilia 42CK; +100 mM NaCl) | activity vs S. maltophilia (S. maltophilia 42CK; +175 mM NaCl) | activity vs S. maltophilia (S. maltophilia 42CK; LOW SALT CONDITIONS) | other results
CC[C@H](C)[C@H](NC(=O)[C@H](CCCCN)NC(=O)[C@H](CCC(=O)O)NC(=O)[C@H](CCCCN)NC(=O)[C@H](CO)NC(=O)[C@H](CCCCN)NC(=O)[C@H](CCCNC(=N)N)NC(=O)[C@H](Cc1ccccc1)NC(=O)[C@H](Cc1ccccc1)NC(=O)[C@H](CC(=O)O)NC(=O)CNC(=O)[C@H](CC(C)C)NC(=O)[C@@H](N)CC(C)C)C(=O)NCC(=O)N[C@@H](CCCCN)C(=O)N[C@@H](CCC(=O)O)C(=O)N[C@@H](Cc1ccccc1)C(=O)N[C@@H](CCCCN)C(=O)N[C@@H](CCCNC(=N)N)C(=O)N[C@H](C(=O)N[C@H](C(=O)N[C@@H](CCC(N)=O)C(=O)N[C@@H](CCCNC(=N)N)C(=O)N[C@H](C(=O)N[C@@H](CCCCN)C(=O)N[C@@H](CC(=O)O)C(=O)N[C@@H](Cc1ccccc1)C(=O)N[C@@H](CC(C)C)C(=O)N[C@@H](CCCNC(=N)N)C(=O)N[C@@H](CC(N)=O)C(=O)N[C@@H](CC(C)C)C(=O)N[C@H](C(=O)N1CCC[C@H]1C(=O)N[C@@H](CCCNC(=N)N)C(=O)N[C@H](C(=O)N[C@@H](CCC(=O)O)C(=O)N[C@@H](CO)C(=O)O)[C@@H](C)O)C(C)C)[C@@H](C)CC)C(C)C)[C@@H](C)CC [LL-37, reference compound] | – | – | – | – | – | – | – | – | – | – | – | – | – | – | – | – | – | – | MIC (P. aeruginosa MR 3007; 0% NHS): 12.7 µg/mL (≈ 2.83 µM); MIC (P. aeruginosa MR 3007; 2.5% NHS): 23.7 µg/mL (≈ 5.27 µM); MIC (P. aeruginosa MR 3007; 20% NHS): 141 µg/mL (≈ 31.4 µM); MIC (E. coli ML 35P [1]; 0% NHS, underlay gel 60% RPMI-1640): 5.8 µg/mL (≈ 1.29 µM); MIC (E. coli ML 35P [1]; 2.5% NHS, underlay gel 60% RPMI-1640): 21.0 µg/mL (≈ 4.67 µM)
K N L R R I I R K G I H I I K K Y G-CONH2 (KNLRRIIRKGIHIIKKYG-NH2) [Novispirin G10 amide] | – | – | – | – | – | – | – | – | – | – | – | – | – | – | – | – | – | – | MIC (P. aeruginosa; +1 mM Ca): 83.5 ± 6.4; MIC (P. aeruginosa; +1 mM Mg): >250; MIC (P. aeruginosa; No Ca/Mg): 0.12 ± 0.01; MIC (E. coli; +1 mM Ca): 7.26 ± 0.02; MIC (E. coli; +1 mM Mg): 17.2 ± 3.9; MIC (E. coli; No Ca/Mg): 0.06 ± 0.00; MIC (K. pneumoniae; +1 mM Ca): 83.5 ± 6.4; MIC (K. pneumoniae; +1 mM Mg): >250; MIC (K. pneumoniae; No Ca/Mg): 0.12 ± 0.01; MIC (S. aureus): >79
KNLRRIGRKIIHIIKKYG [G7 Novispirin, K N L R R I G R K I I H I I K K Y G] | 0.2 ± 0.0 µg/mL | 0.2 ± 0.0 µg/mL | 1.5 ± 0.4 µg/mL | 0.39 | 0.29 | 0.25 | 0.38 | 0.70 | 0.61 | 0.31 | 0.29 | 0.17 | 0.89 | 1.94 | 0.54 | 0.92 | 2.85 | 0.42 | –
KNLRRIIRKIIHIIKKYG [Ovispirin, K N L R R I I R K I I H I I K K Y G] | 0.7 ± 0.0 µg/mL | 0.7 ± 0.1 µg/mL | 1.5 ± 0.6 µg/mL | – | – | – | – | – | – | – | – | – | – | – | – | – | – | – | hemolytic activity for human red blood cells (human red blood cells): about as hemolytic for human red blood cells as protegrin PG-1; MIC (E. coli ML 35P [1]; ML 35P): 1.7 µg/mL
KNLRRIIRKTIHIIKKYG [T10 Novispirin, K N L R R I I R K T I H I I K K Y G] | 0.5 ± 0.2 µg/mL | 0.3 ± 0.2 µg/mL | 2.7 ± 1.1 µg/mL | – | – | – | – | – | – | – | – | – | – | – | – | – | – | – | cytotoxicity for MRC-5 human lung fibroblasts [3]: virtually devoid of cytotoxicity
KNLRRITRKIIHIIKKYG [T7 Novispirin, K N L R R I T R K I I H I I K K Y G] | 0.3 ± 0.1 µg/mL | 0.2 ± 0.1 µg/mL | 1.4 ± 0.5 µg/mL | 0.47 | 0.48 | 0.18 | 0.58 | 0.62 | 0.74 | 0.32 | 0.52 | 0.21 | 1.75 | 2.74 | 0.88 | 0.73 | 1.92 | 0.56 | –
